Measurements: patent publication US12595289B2, “Therapeutic agent for breast cancer comprising BIG3-PHB2 interaction-inhibiting peptide derived from PHB2” (TOKUSHIMA UNIVERSITY, priority 2018, dated 2026)
“And” between values parts separate entries of the source, which are not always exact repeats. Identical values can stand only once. Positions of bridges follow the written chain, without caps; N, C: chain ends. Non-standard residues stand in square brackets, D forms with d. Residues, ends and D or L forms follow the SMILES beside them. No end group written: not given here. 2Nal = N[C@@H](Cc1ccc2ccccc2c1)C(=O)O; Nle = CCCC[C@H](N)C(=O)O; PEG = not defined here

Experiments:
[1] = test system: Normal mammary gland epithelial cell line MCF-10A; assay: Growth assay on normal mammary gland epithelial cells MCF-10A; type: cell-based
Description: (§1) Growth assay on MCF-7 was carried out by seeding cells into 48-well plates (2×10^4 cells/200 μL). First, on the next day after seeding, the medium was changed to phenol red-free DMEM/F12 (Thermo Fisher Scientific) supplemented with 10% FBS, 1% Antibiotic/Antimycotic solution, 0.1 mM NEAA, 1 mM sodium pyruvate, and 10 μg/mL insulin. 24 hours later, the cells were treated with 10 nM 17β-estradiol (estrogen, Sigma) alone or with 10 nM estrogen and a PHB2 sequence-derived peptide. Growth assay on MCF-10A was carried out by seeding cells into 48-well plates (2×10^4 cells/200 μL). 24 hours after seeding, PHB2 sequence-derived peptide was added. Growth assays were carried out using the Cell Counting Kit-8 (CCK-8) (Dojindo, Kumamoto, Japan). The data are shown by mean±standard deviation of three independent experiments.

[2] = test system: Human breast cancer cell line MCF-7; assay: Estrogen (E2)-dependent growth assay on MCF-7; type: cell-based; details: 24 hours; for suppression ratio of E2-dependent growth: MCF-7, 10 μM each peptide, 10 nM estrogen; for suppression ratio of estrogen-dependent growth: MCF-7, 10 nM estrogen, peptide concentration not given (FIG. 11B, 12B)
Description: as §1
PHB2 peptides 11-21aa and 76-88aa were cross-linked by three types of cross-linking methods (FIG. 10A: hexafluorobenzene cross-linking, decafluorobiphenyl cross-linking, and disulfide cross-linking) to prepare cross-linked PHB2 peptides (stapled PHB2 peptides) (FIG. 10B), and the suppressive effects of these peptides on estrogen-dependent growth were examined. In the experiment, breast cancer cells MCF-7 were seeded, 10 μM each PHB2 peptide and 10 nM estrogen were added after 48 hours, and the cell number was evaluated after another 24 hours by MTT assay.

[3] = test system: Human breast cancer cell line MCF-7; assay: Estrogen (E2)-dependent growth assay on MCF-7; type: cell-based; details: 10 nM estrogen
[4] = test system: PHB2 (Ser39) phosphorylation; assay: Ser39 phosphorylation of PHB2 in MCF-7 by Western blotting; type: cell-based, Human; details: MCF-7, 10 μM each peptide, 10 nM estrogen, 24 hours (FIG. 2C)
Description: For immunoblot analyses, after performing SDS-PAGE, the membranes blotted with proteins were blocked with 4% BlockAce solution (Dainippon Pharmaceutical, Osaka, Japan) for 3 hours and then incubated to react for 12 hours with antibodies against BIG3 (1:1,000), PHB2 (1:1,000) (Abcam, Cambridge, UK) and phosphorylated PHB2 (Ser39, Scrum, Tokyo, Japan). After allowing interaction with HRP-labeled secondary antibodies (anti-rat IgG-HRP for BIG3, 1:5,000; and anti-rabbit IgG-HRP for PHB2 and phosphorylated PHB2, 1:1,000) (Santa Cruz Biotechnology, Dallas, TX, USA) for 1 hour, the blots were developed with the Enhanced Chemiluminescence (ECL) system (GE Healthcare, Buckinghamshire, UK) and scanned using the Image Reader LAS-3000 mini (Fujifilm, Tokyo, Japan).

[5] = MCF-10A (FIG. 6B), 1 μM or 10 μM, up to 96 hours
[6] = MCF-10A, cyclic 11-21aa 4 μM, cyclic 76-88aa 2 μM (FIG. 7C)
[7] = MCF-7, 4 μM cyclic 11-21aa, 2 μM cyclic 76-88aa, up to 96 hours (FIG. 7B)
[8] = MCF-7, 10 μM peptide alone, after 96 hours

Row | Compound | suppression ratio of E2-dependent growth [2] | suppression ratio of estrogen-dependent growth [2] | other results
1 | CCCC[C@@H]1NC(=O)CNC(=O)[C@H](CCCNC(=N)N)NC(=O)[C@@H]2CCCN2C(=O)CNC(=O)[C@H](C)NC(=O)[C@@H]2CCCN2C(=O)[C@H](CC(C)C)NC(=O)[C@H](CCCNC(=N)N)NC(=O)[C@@H]2CSSC[C@H](NC(=O)[C@H]([C@@H](C)O)NC(=O)CNC1=O)C(=O)N[C@@H](Cc1ccccc1)C(=O)N[C@@H](Cc1ccc3ccccc3c1)C(=O)N[C@@H](CCCNC(=N)N)C(=O)N[C@@H](CCCNC(=N)N)C(=O)N[C@@H](CCCNC(=N)N)C(=O)N[C@@H](CCCNC(=N)N)C(=O)N2 [cyclic 11-21aa] (cyclo(CRLPAGPRG[Nle]GTCF[2Nal]RRRR); disulfide 1-13) | enhanced suppression ratios compared to non-cyclic peptides |  | effect on growth of MCF-10A [1, 5]: no effect on the growth; effect on growth of MCF-10A [1, 6]: no effect on growth; suppression ratio of E2-dependent growth ([2]; listed as cyclic peptide 11-21aa): 53%; suppression ratio of E2-dependent growth [3, 7]: 41%; suppression ratio of E2-dependent growth [3, 8]: 67%
2 | CC[C@H](C)[C@@H]1NC(=O)[C@H](CC(=O)O)NC(=O)[C@H](Cc2ccc(O)cc2)NC(=O)[C@H]([C@@H](C)CC)NC(=O)[C@H]([C@@H](C)CC)NC(=O)[C@@H]2CCCN2C(=O)[C@H](Cc2ccc(O)cc2)NC(=O)[C@H](CCC(N)=O)NC(=O)[C@@H]2CSSC[C@H](NC(=O)[C@H](CCCNC(=N)N)NC(=O)[C@@H]3CCCN3C(=O)[C@H](CCCNC(=N)N)NC(=O)[C@H](C)NC(=O)[C@H](CCCNC(=N)N)NC1=O)C(=O)N[C@@H](Cc1ccccc1)C(=O)N[C@@H](Cc1ccc3ccccc3c1)C(=O)N[C@@H](CCCNC(=N)N)C(=O)N[C@@H](CCCNC(=N)N)C(=O)N[C@@H](CCCNC(=N)N)C(=O)N[C@@H](CCCNC(=N)N)C(=O)N2 [cyclic 76-88aa] (cyclo(CQYPIIYDIRARPRCF[2Nal]RRRR); disulfide 1-15) | enhanced suppression ratios compared to non-cyclic peptides |  | effect on growth of MCF-10A [1, 5]: no effect on the growth; effect on growth of MCF-10A [1, 6]: no effect on growth; suppression ratio of E2-dependent growth ([2]; listed as cyclic peptide 76-88aa): 58%; suppression ratio of E2-dependent growth [3, 7]: 59%; suppression ratio of E2-dependent growth [3, 8]: 72%
3 | No. 2: PHB2 sequence-derived peptide 42-50aa (TVEGGHRAI; not fully specified (C-terminus)) | 22% and 20% |  | 
4 | No. 3: PHB2 sequence-derived peptide 38-50aa (ESVFTVEGGHRAI; not fully specified (C-terminus)) | 23% and 17% |  | 
5 | No. 6: PHB2 peptide 86-100aa (negative control) (RPRKISSPTGSKDLQ; not fully specified (C-terminus)) | about 10% |  | band intensity of Ser39 phosphorylation of PHB2 compared to ERAP treatment [4]: 10%
6 | No. 50: PHB2 sequence-derived peptide 75-89aa (FQYPIIYDIRARPRK; not fully specified (C-terminus)) | almost the same suppressive effect |  | 
7 | SEQ ID NO: 115: cross-linked PHB2 peptide 11-21aa without polyarginine at the C terminus (CRLPAGPRG[Nle]GTC-NH2; linker 1-13 via hexafluorobenzene) | about 70% |  | 
8 | SEQ ID NO: 116: cross-linked PHB2 peptide 11-21aa without polyarginine at the C terminus (CRLPAGPRG[Nle]GTC-NH2; linker 1-13 via decafluorobiphenyl) | about 70% |  | 
9 | SEQ ID NO: 117: cross-linked PHB2 peptide 11-21aa without polyarginine at the C terminus (CRLPAGPRG[Nle]GTC-NH2; disulfide 1-13) | about 70% |  | 
10 | SEQ ID NO: 119: cross-linked PHB2 peptide 76-88aa without polyarginine at the C terminus (CQYPIIYDIRARPRC-NH2; linker 1-15 via hexafluorobenzene) | about 70% |  | 
11 | SEQ ID NO: 120: cross-linked PHB2 peptide 76-88aa without polyarginine at the C terminus (CQYPIIYDIRARPRC-NH2; linker 1-15 via decafluorobiphenyl) | about 70% |  | 
12 | SEQ ID NO: 121: cross-linked PHB2 peptide 76-88aa without polyarginine at the C terminus (CQYPIIYDIRARPRC-NH2; disulfide 1-15) | about 70% |  | 
13 | SEQ ID NO: 123: cyclic PHB2 peptide 11-21aa, hexafluorobenzene cross-linked (CRLPAGPRG[Nle]GTCF[Nal]RRRR; linker 1-13 via hexafluorobenzene; not fully specified (C-terminus)) |  | about 70% | 
14 | SEQ ID NO: 124: cyclic PHB2 peptide 11-21aa, decafluorobiphenyl cross-linked (CRLPAGPRG[Nle]GTCF[Nal]RRRR; linker 1-13 via decafluorobiphenyl; not fully specified (C-terminus)) |  | about 70% | 
15 | SEQ ID NO: 126: cyclic PHB2 peptide 76-88aa, hexafluorobenzene cross-linked (CQYPIIYDIRARPRCF[Nal]RRRR; linker 1-15 via hexafluorobenzene; not fully specified (C-terminus)) |  | about 80% | 
16 | SEQ ID NO: 127: cyclic PHB2 peptide 76-88aa, decafluorobiphenyl cross-linked (CQYPIIYDIRARPRCF[Nal]RRRR; linker 1-15 via decafluorobiphenyl; not fully specified (C-terminus)) |  | about 80% | 
17 | SEQ ID NO: 133: PHB2 peptide 11-22aa in which glycines at positions 15 and 18 were substituted with D-alanines (RLPA[dA]PR[dA]MGTARRRRRRRR-NH2) |  | no suppressive effect | 
18 | SEQ ID NO: 134: PHB2 peptide 11-22aa in which glycines at positions 15 and 18 were substituted with D-leucines (RLPA[dL]PR[dL]MGTARRRRRRRR-NH2) |  | about 65% | 
19 | branched bound: 11-22aa and 76-90aa sequences synthesized with branching, linked via a PEG sequence (peptide 1 RLPAGPRGMGTA; peptide 2 QYPIIYDIRARPRKI; linker (positions not given here) via PEG; not fully specified (N-terminus); reading uncertain; also: branched construct, branch and link places not given here) | 57% |  | inhibition ratio of MCF-10A growth ([1]; MCF-10A, 10 μM each peptide, 24 hours): no effect on growth
